According to patent US10738082B2, “One-bead-two-compound macrocyclic library and methods of preparation and use” (University of South Florida, priority 2017, dated 2020):

Columns and labels:
cell invasion = assay: Cell invasion assay; type: cell-based; details: 10 μM, 24 hours
Procedure: Invasion and migration assays were performed as described before.

cell migration = details: 10 μM, 24 hours
Procedure: Invasion and migration assays were performed as described before. Cells were plated into the top chambers and treated with either vehicle or 10 μM C-84. 24 hours later cells in top chamber were scraped and migrated cells were fixed with crystal violet staining.

GST protein = GST protein (Schistosoma japonicum, UniProt P08515); assay: Fluorescence polarization (FP) binding assay, GST protein
Chain of GST protein (P08515 whole entry): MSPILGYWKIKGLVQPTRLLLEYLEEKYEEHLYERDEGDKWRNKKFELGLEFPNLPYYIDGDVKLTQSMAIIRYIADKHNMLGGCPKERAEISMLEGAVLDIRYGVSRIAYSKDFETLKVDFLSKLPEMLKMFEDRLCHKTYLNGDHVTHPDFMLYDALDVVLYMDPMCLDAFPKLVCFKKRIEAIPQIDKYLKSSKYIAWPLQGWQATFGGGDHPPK

Row | SMILES | decrease in cell invasion (cell invasion) [%] | decrease in cell migration (cell migration) | GST binding weaker than EphA2 binding (GST protein; Kd GST vs Kd EphA2) [fold] | Kd (GST protein; fluorescence polarization, 50 nM FITC labeled AApeptide, GST 0.3125 to 55 μM, read-out: binding affinity to GST protein, Kd) [µM]
1 | NC(=O)CN1C[C@H](Cc2ccccc2)NC(=O)CN(C(=O)CCC(=O)O)C[C@H](CCC(=O)O)NC(=O)CN(C(=O)Cc2ccc3c(c2)OCO3)C[C@H](CCC(=O)O)NC(=O)CN(C(=O)CCC2CCCCC2)C[C@H](Cc2ccccc2)NC(=O)c2ccc(cc2)CSCCC1=O [C-84] | ~80 | around 70% |  | 
2 | NC(=O)[C@H](CCCCNC(=S)Nc1ccc(-c2c3ccc(=O)cc-3oc3cc(O)ccc23)c(C(=O)O)c1)NC(=O)CN1C[C@H](Cc2ccccc2)NC(=O)CN(C(=O)CCC(=O)O)C[C@H](CCC(=O)O)NC(=O)CN(C(=O)Cc2ccc3c(c2)OCO3)C[C@H](CCC(=O)O)NC(=O)CN(C(=O)CCC2CCCCC2)C[C@H](Cc2ccccc2)NC(=O)c2ccc(cc2)CSCCC1=O [YS-D-44] |  |  | ~150 | 12.3
